Assay results as given in patent US20090253709A1 (NATIONAL DEFENSE MEDICAL CENTER, priority 2008, published 2009).
Where two headings read alike, the source gives them in different places.

Experiments:
MTT assay in H1299 cells = type: cell-based; settings: human, H1299 cells (H1299/PhTERT-driven SEAP reporter system), H1299, read-out: MTT (Inhibition μM ± SD); for viability at 24 h, 1 µM: compound concentration 1 μM; for viability at 24 h, 10 µM: compound concentration 10 μM; for viability at 24 h, 100 µM: compound concentration 100 μM
Procedure: H1299 is a non-small cell lung cancer cell line with telomerase activity. The cell extract of H1299 cell lines can be used for selecting the telomerase activity inhibitors in vitro and the telomerase activity-inhibited substances in vivo. H1299 cell line was incubated with RPMI 1640 medium supplemented with 10% of fetal bovine serum (FBS). A total of 2×10^3 […] cells were seeded in the 96-well cell culture plate, and incubated with DMEM (GIBCO®)/glucose mixture and Medium 199 (GIBCO®)/10% FBS/1 mM sodium pyruvate (GIBCO®)/4 mM L-glutamine (GIBCO®) mixture at a ratio of 4:1 at 37° C. for 24 hours. […] After 48 hours of drug treatment, the cultured medium were collected for performing the analysis of SEAP activity. The cells were washed with 1×PBS once immediately, and the MTT assay was performed to compare the compounds with the relative toxicity or the influence to the proliferation and activity. Mitochondria is the place for cellular respiration, and there are many reductive reactions catalyzed by dehydrogenases. MTT is a water-soluble yellow compound, and the […] will be formed after reduction. This crystal can be dissolved in the organic solvent, and has high absorbance at the wavelength of 570 nm. The higher cellular activity or more cell numbers, the more generated crystal violets. Therefore, the cellular activity and cell number can be obtained by the MTT assay. MTT solution was prepared by dissolving MTT powder in PBS solution to achieve 5 mg/ml, filtrated and stored at 4° C. Lysis buffer contained 20% (w/v) of SDS in 50% of N,N-dimethylformamide (DMF, Riedel-deHaën). After the cells were incubated in the 96-well culture plate, the original medium was discarded, 100 μl of the fresh serum-free medium per well and 25 μl of MTT solution per well were added in respectively, and the cells were further incubated in the CO2 incubator at 37° C. for 4 hours. Then, 100 μl of lysis buffer per well was added in and incubated overnight in the CO2 incubator at 37° C. The absorbance at 570 nm was determined by the ELISA reader. The selection of telomerase inhibitors of the anthraquinone compounds provided in the present invention was performed by the […]-driven SEAP system. SEAP is the communication gene in this drug selection model. The SEAP inhibition was shown as follows. […] Subsequently, the linear slope of absorbance to the measuring time was calculated, and the variance of absorbance at 405 nm per minute was represented and compared with the SEAP-producing result of drug-untreated H1299 cells. In addition, the influence of the cell-treated drug solution to the cellular proliferation and the drug toxicity to the cells were considered, and the cellular growth was evaluated by the MTT assay. The drug-treated cells were analyzed by the SEAP assay and the data analysis of MTT assay at the same time. Both results were compared so as to delete the influence of cell number or the activity to SEAP, and the dose-dependent phenomenon could be anticipated in the range of drug concentration designed by the laboratory. […] Since the chemically-synthetic drugs have colors thereon, the SEAP value of drug-treatment without cells was also determined to be the background value which was deducted while treating with the drugs. The candidate drug for inhibiting telomerase on the hTERT gene expression level was evaluated and anticipated.

hTERT expression = test: SEAP assay, H1299/PhTERT-driven SEAP system; type: cell-based, human; settings: Homo sapiens
From the text: The condition of the cells for selecting the telomerase inhibitor must be the cancer cells with telomerase activity. H1299 is a non-small cell lung cancer cell line with telomerase activity. The hTERT communication gene linked behind PhTERT which is located at the fifth chromosome of H1299 cell can be expressed; however, this expression is hard to detect. Therefore, the plasmid having the SEAP communication gene linked behind PhTERT was transfected into H1299 cells. Under the identical condition, after PhTERT was activated, the SEAP communication gene linked behind the plasmid was also activated. This gene could be detected by this analytic method while expressing.
If additionally added reagent can inhibit PhTERT, the linked SEAP communication gene will not be expressed, and the hTERT communication gene linked behind PhTERT at the fifth chromosome will not be expressed. […]
The cellular medium after the cellular incubation was transferred into the eppondorf tube, and the activity of endogeneous alkaline phosphatase was inactivated at 65° C. for 10 minutes. After centrification, the mixture was obtained by mixing 50 μl of the supernatant with the equal volume of the SEAP buffer. The mixture and the substrate (120 mM of p-nitrophenylphosphate) were preheated at 37° C. for 10 minutes respectively, and the mixture and the substrate were mixed at a ratio of 1:10 and reacted at 37° C. The absorbance of visible light at 405 nm was determined at the appropriate time intervals, and the enzymatic activity of SEAP was represented by the speed of the increasing absorbance at 405 nm.
The selection of telomerase inhibitors of the anthraquinone compounds provided in the present invention was performed by the H1299/PhTERT-driven SEAP system. SEAP is the communication gene in this drug selection model. The SEAP inhibition was shown as follows. The quantitative cellular medium obtained after the 24-hour drug-treatment and the identical inactivation was reacted with the quantitative SEAP substrate, and the absorbance at 405 nm was detected for 5 time intervals. Subsequently, the linear slope of absorbance to the measuring time was calculated, and the variance of absorbance at 405 nm per minute was represented and compared with the SEAP-producing result of drug-untreated H1299 cells. In addition, the influence of the cell-treated drug solution to the cellular proliferation and the drug toxicity to the cells were considered, and the cellular growth was evaluated by the MTT assay. The drug-treated cells were analyzed by the SEAP assay and the data analysis of MTT assay at the same time. Both results were compared so as to delete the influence of cell number or the activity to SEAP, and the dose-dependent phenomenon could be anticipated in the range of drug concentration designed by the laboratory.
In the preliminary selection, the highest concentration was 1000 μM, and 10-fold serial dilutions were done. Therefore, the final concentrations for treating cells were 1 μM, 10 μM and 100 μM, and the drug concentrations were repeated for 5 times. Since the chemically-synthetic drugs have colors thereon, the SEAP value of drug-treatment without cells was also determined to be the background value which was deducted while treating with the drugs. The candidate drug for inhibiting telomerase on the hTERT gene expression level was evaluated and anticipated.

[1] = NCI-H1299, H1299, compound concentration 1 μM, read-out: SEAP (Inhibition μM ± SD)
[2] = NCI-H1299, H1299, compound concentration 10 μM, read-out: SEAP (Inhibition μM ± SD)
[3] = NCI-H1299, H1299, compound concentration 100 μM, read-out: SEAP (Inhibition μM ± SD)
[4] = NCI-H1299, read-out: SEAP (Inhibition μM ± SD)

SMILES	viability at 24 h, 1 µM (MTT assay in H1299 cells)	viability at 24 h, 10 µM (MTT assay in H1299 cells)	viability at 24 h, 100 µM (MTT assay in H1299 cells)	activity at 1 µM (hTERT expression; [1])	activity at 10 µM (hTERT expression; [2])	activity at 100 µM (hTERT expression; [3])	activity at 1 µM (hTERT expression; [4])	activity at 10 µM (hTERT expression; [4])	activity at 100 µM (hTERT expression; [4])
CCC(=O)Nc1ccc2c(c1)C(=O)c1cc(NC(=O)CC)ccc1C2=O [Compound 27, 2,7-Bis(propionamido)anthraquinone]	70 ± 25%	38 ± 17%	35 ± 15%	90 ± 23%	95 ± 14%	85 ± 16%	–	–	–
O=C(CCCl)Nc1ccc2c(c1)C(=O)c1cc(NC(=O)CCCl)ccc1C2=O [Compound 15, 2,7-Bis(3-chloropropionamido)anthraquinone]	77 ± 13%	44 ± 15%	29 ± 11%	94 ± 11%	94 ± 7%	87 ± 9%	–	–	–
CCNCCC(=O)Nc1ccc2c(c1)C(=O)c1cc(NC(=O)CCNCC)ccc1C2=O [Compound 22, 2,7-Bis[3-(ethylamino)propionamido]anthraquinone]	86 ± 10%	59 ± 3%	34 ± 7%	–	–	–	68 ± 29%	33 ± 24%	22 ± 13%
O=C(CN1CCCC1)Nc1ccc2c(c1)C(=O)c1cc(NC(=O)CN3CCCC3)ccc1C2=O [Compound 6, 2,7-Bis[2-(pyrrolidino)acetamido]anthraquinone]	99 ± 9%	52 ± 13%	23 ± 14%	88 ± 10%	48 ± 13%	30 ± 10%	–	–	–
CC(=O)Nc1ccc2c(c1)C(=O)c1cc(NC(C)=O)ccc1C2=O [Compound 26, 2,7-Bis(acetamido)anthraquinone]	117 ± 15%	83 ± 13%	55 ± 11%	–	–	–	97 ± 10%	87 ± 14%	74 ± 18%
CN(C)CC(=O)Nc1ccc2c(c1)C(=O)c1cc(NC(=O)CN(C)C)ccc1C2=O [Compound 8, 2,7-Bis[2-(dimethylamino)acetamido]anthraquinone]	92 ± 13%	55 ± 9%	15 ± 12%	–	–	–	87 ± 12%	40 ± 20%	21 ± 14%
CCN(CC)CCC(=O)Nc1ccc2c(c1)C(=O)c1cc(NC(=O)CCN(CC)CC)ccc1C2=O [Compound 16, 2,7-Bis[3-(diethylamino)propionamido]anthraquinone]	106 ± 15%	41 ± 20%	1 ± 1%	76 ± 19%	35 ± 17%	26 ± 11%	–	–	–
O=C1c2ccc(NC(=O)C3CC3)cc2C(=O)c2cc(NC(=O)C3CC3)ccc21 [Compound 32, 2,7-Bis(cyclopropanecarbonamido)anthraquinone]	46 ± 14%	36 ± 13%	43 ± 15%	80 ± 1%	81 ± 1%	81 ± 1%	–	–	–
O=C(CCN1CCNCC1)Nc1ccc2c(c1)C(=O)c1cc(NC(=O)CCN3CCNCC3)ccc1C2=O [Compound 24, 2,7-Bis[3-(piperazino)propionamido]anthraquinone]	97 ± 8%	94 ± 8%	102 ± 13%	75 ± 26%	71 ± 21%	71 ± 15%	–	–	–
CCCCNCC(=O)Nc1ccc2c(c1)C(=O)c1cc(NC(=O)CNCCCC)ccc1C2=O [Compound 5, 2,7-Bis[2-(butylamino)acetamido]anthraquinone]	91 ± 16%	17 ± 9%	15 ± 11%	77 ± 18%	26 ± 17%	20 ± 13%	–	–	–
O=C(CCl)Nc1ccc2c(c1)C(=O)c1cc(NC(=O)CCl)ccc1C2=O [Compound 3, 2,7-bis(chloroacetamido)anthraquinone]	58 ± 44%	5 ± 3%	1%	–	–	–	72 ± 3%	40 ± 1%	36 ± 1%
O=C(CN1CCCCC1)Nc1ccc2c(c1)C(=O)c1cc(NC(=O)CN3CCCCC3)ccc1C2=O [Compound 7, 2,7-Bis[2-(piperidino)acetamido]anthraquinone]	50 ± 16%	37 ± 15%	35 ± 11%	74 ± 19%	69 ± 20%	63 ± 15%	–	–	–
CCCC(=O)Nc1ccc2c(c1)C(=O)c1cc(NC(=O)CCC)ccc1C2=O [Compound 28, 2,7-Bis(butyramido)anthraquinone]	93 ± 14%	59 ± 13%	40 ± 15%	–	–	–	90 ± 8%	83 ± 6%	83 ± 4%
O=C(CCN1CCCCC1)Nc1ccc2c(c1)C(=O)c1cc(NC(=O)CCN3CCCCC3)ccc1C2=O [Compound 19, 2,7-Bis[3-(piperidino)propionamido]anthraquinone]	87 ± 15%	44 ± 7%	18 ± 9%	55 ± 23%	33 ± 8%	25 ± 10%	–	–	–
CCCNCCC(=O)Nc1ccc2c(c1)C(=O)c1cc(NC(=O)CCNCCC)ccc1C2=O [Compound 21, 2,7-Bis[3-(propylamino)propionamido]anthraquinone]	80 ± 15%	50 ± 6%	13 ± 10%	52 ± 13%	22 ± 14%	13 ± 15%	–	–	–
